Test results: ChEMBL document CHEMBL1122361, “Synthesis and antineoplastic activity of 3'-azido and 3'-amino analogues of pyrimidine deoxyribonucleoside” (1983)
pIC50: −log10 of the molar value. Active and inactive are the calls of the source. The rule behind the calls is not given here.

Key:
L1210 [1] = assay: Ability to effect the replication of L1210 cells in vitro; assay type: functional; details: Mus musculus, read-out: ID50 (the source's name)
[2] = Ability to effect the replication of S-180 cells in vitro; assay type: functional; details: Mus musculus, read-out: ID50 (the source's name)
L1210 [3] = assay: Ability to effect the replication of L1210 cells in vitro; IN-Inactive; assay type: functional, cell-based; details: Mus musculus
Mus musculus = assay: Ratio of treated to that of control was determined in mice tested in vivo(on day 31); assay type: functional

Row | Compound | pIC50 (L1210 [1]) | pIC50 [2] | ID50 (L1210 [3]) | T/C (Mus musculus)
1 | N[C@H]1C[C@H](n2ccc(=O)[nH]c2=O)O[C@@H]1CO | 4.74 | 4.30 | – | –
2 | [N-]=[N+]=N[C@H]1C[C@H](n2ccc(N)nc2=O)O[C@@H]1CO | – | – | inactive | –
3 | Nc1ccn([C@H]2C[C@H](N)[C@@H](CO)O2)c(=O)n1 | 6.15 | 5.40 | – | 283%
4 | [N-]=[N+]=N[C@H]1C[C@H](n2ccc(=O)[nH]c2=O)O[C@@H]1CO | – | – | inactive | –
